Test results reported in patent US20120302530A1, “23-HYDROXY-BETULINIC ACID DERIVATIVES, PREPARATION METHODS AND USES THEREOF” (priority 2009, published 2012).
Like-named read-outs stand apart in the source and are kept apart here.

Key:
Format in all cases: cell-based
[1] = test system: C8166 (human T cell line); experiment: Toxicity to C8166 cells (MTT, day 7); conditions: Homo sapiens, read-out: IC50 (50% inhibition concentration) to C8166 cell
Method: (2) Toxicity of compounds zhangnan-5, zhangnan-7 and zhangnan-8 to C8166 and PBMC cells:
C8166 (human T cell line) and PBM (using lymphocyte isolation liquid to separate from normal human peripheral blood, and adhered mononuclear cell separated from PBMC) cells in exponential phase are taken. The cells are resuspended after centrifugal (1000 r•min-1, 10 min), and the concentrations are adjusted to 4×10^5/ml and 2×10^6/ml. The test samples are double diluted on the 96-hole cell culture plate. In total 6 gradients are set, each having 3 duplicate holes. In addition, positive control group and cell control group are set. Upon adding cell suspended liquid, the test samples are placed in incubator of 370C and 5% CO2 for incubation. On the seventh (7th) day, MTT method is used to determine toxicity of the samples to cells.
Inhibition ratio of cell growth (%)=(1−experimental hole OD value/control hole (OD value)×100%

[2] = test system: HIV-1Ada-M; experiment: ELISA of HIV-1Ada-M p24 antigen expression in PBMC; conditions: for therapeutic index TI: HIV-1Ada-M p24, PBMC, TI=IC50/EC50; for EC50: Human immunodeficiency virus 1, HIV-1Ada-M, PBMC, 7th day, ELISA, read-out: EC50, inhibition of p24 antigen expression
Source text: (4) Quantitative Enzyme Linked Immunoadsorbent method (EIISA) detecting inhibiting effects of compounds to virus HIV-1Ada-Mp24 expression: (see JIANG, Haiou; WANG, Xu; L I, Rurun; CHEN, Dagang; B I, Kunlong, Experimental Research on Recipe Sanhuangsan Capsule Resisting AIDS Virus in Vitro, [J], Shandong Journal of Traditional Chinese medicine, 2005.8 (1):21-26).
Multi-heads sample injector is used to conduct triple dilution to the sample on the 96-hole culture plate. There are 6 dilutions, in which each dilution has 3 duplicate holes, and each hole is 100 ul. […] On the 96-hole flat culture plate, each hole is added with 25 ul virus stock solution containing 1000˜5000 pg/well P24 antigen, which is sufficiently blended. 75 ul mononuclear cell PBMC suspension liquid is added (3×10^5 cell numbers/hole). Upon placing in incubator of 37° C., 5% CO2 to the third day, 100 ul of culture medium is added to each hole. On the 7th day, cell culture supernatant is collected for p24 antigen test. According to p24 kit description, ELISA method is used to measure the virus HIV-1 p24 antigen concentration of each sample cell culture hole supernatant. The following formula is used to calculate the inhibition ratio of sample to virus.
Inhibition ratio of sample to virus p24 antigen (%)=(1−experimental hole OD value/cell+virus control hole OD value)×100%. Reed and Mueneh method is used to calculate EC50 of the test sample, and to further calculate the therapeutic index (TI) (TI=IC50/EC50). […] The positive control SCH-C, 23-hydroxyl-betulinic acid, compounds zhangnan-5, zhangnan-7 and zhangnan-8 all reach an inhibition ratio above 50% within the tested range. The positive control SCH-C inhibits HIV-1Ada-M p24 antigen expression. […] In addition, the inhibition effect to HIV-1Ada-M has significant dose-effect relationship with its concentration.

[3] = test system: G-361; experiment: MTT cytotoxicity, human tumor cell strain; conditions: G-361, Skin (melanoma), 72 hours
Source text: (§1) We use human tumor cell lines to conduct cytotoxicity analysis. Thirty-one (31) kinds of human tumor cell strains are cultivated in the normal culture medium containing various compounds of zhangnan-5, zhangnan-7 and zhangnan-8. The human tumor lines are bought from ATCC and NCI, and is cultivated with DMEM culture solution containing 10% FBS in 370C couveuse containing 5% CO2. The merged cells are digested by trypsinase, and are counted after washed by the culture solution. 3000˜6000 cells are added into each hole of the 96-hole culture plate, and are hatched for 16 hours or 24 hours. Then, compounds zhangnan-5, zhangnan-7 and zhangnan-8 with different concentrations are added into the holes. Upon further cultivated for another 72 hours, MTT tests are conducted to cells in group treated with drugs and the control group cells, to determine the survival condition of the cells.

[4] = test system: SGC-7901; experiment: MTT cytotoxicity, human tumor cell strain; conditions: SGC-7901, Stomach, 72 hours
Source text: as §1

[5] = test system: A549; experiment: MTT cytotoxicity, human tumor cell strain; conditions: A549, Lung, 72 hours
Source text: as §1

[6] = test system: BT-549; experiment: MTT cytotoxicity, human tumor cell strain; conditions: BT-549, Mammary Gland, 72 hours
Source text: as §1

[7] = test system: CCL-225; experiment: MTT cytotoxicity, human tumor cell strain; conditions: CCL-225, Colon, 72 hours
Source text: as §1

[8] = test system: PC3; experiment: MTT cytotoxicity, human tumor cell strain; conditions: PC-3, PC3, Prostate, 72 hours
Source text: as §1

[9] = test system: SN12C; experiment: MTT cytotoxicity, human tumor cell strain; conditions: Kidney, 72 hours
Source text: as §1

[10] = test system: SKOV3; experiment: MTT cytotoxicity, human tumor cell strain; conditions: SK-OV-3, SKOV3, Ovary, 72 hours
Source text: as §1

[11] = test system: CNE-2Z; experiment: MTT cytotoxicity, human tumor cell strain; conditions: CNE2Z, Nasopharynx, 72 hours
Source text: as §1

[12] = test system: HT29; experiment: MTT cytotoxicity, human tumor cell strain; conditions: HT-29, HT29, Colon, 72 hours
Source text: as §1

[13] = test system: CCL-247; experiment: MTT cytotoxicity, human tumor cell strain; conditions: CCL-247, Colo, 72 hours
Source text: as §1

[14] = test system: Caki-1; experiment: MTT cytotoxicity, human tumor cell strain; conditions: Caki-1, Kidney, 72 hours
Source text: as §1

[15] = test system: Mid PaCa-2; experiment: MTT cytotoxicity, human tumor cell strain; conditions: Mid PaCa-2, Pancreatic Gland, 72 hours
Source text: as §1

[16] = test system: 786-O; experiment: MTT cytotoxicity, human tumor cell strain; conditions: 786-0, Kidney, 72 hours
Source text: as §1

[17] = test system: ACHN; experiment: MTT cytotoxicity, human tumor cell strain; conditions: Kidney, 72 hours
Source text: as §1

[18] = test system: D145; experiment: MTT cytotoxicity, human tumor cell strain; conditions: D145, Prostate, 72 hours
Source text: as §1

[19] = test system: EC109; experiment: MTT cytotoxicity, human tumor cell strain; conditions: ECa-109, EC109, Esophagus, 72 hours
Source text: as §1

[20] = test system: HCT-116; experiment: MTT cytotoxicity, human tumor cell strain; conditions: HCT-116, Colon, 72 hours
Source text: as §1

[21] = test system: normal human epithelium of mammary gland (MCF-10a); experiment: MTT cytotoxicity, normal cell strain; conditions: for EC50: Homo sapiens, Normal Mammary Gland Epithelial Cell, 72 hours, MTT; for sensitivity of normal cells to the compounds: concentration up to 30 μm, cells can still grow well

## CC(C)C1CCC2(C(=O)O)CCC3(C)C(CCC4C5(C)CCC(O)C(C)(CO)C5CCC43C)C12 (stereo not drawn) [zhangnan-8, 23-hydroxyl-dihydrobetulinic acid]
[1]; 168 h, C8166, day 7, MTT
  IC50: 10.3 ± 2.9 µM
[2]
  therapeutic index TI: 7.3
  EC50: 1.6 ± 0.23 µM
[3]
  EC50: 5.3 µM
[4]
  EC50: 8.9 µM
[5]
  EC50: 6.9 µM
[6]
  EC50: 7.4 µM
[7]
  EC50: 8.6 µM
[8]
  EC50: 8.9 µM
[9]
  EC50: 7.6 µM
[10]
  EC50: 6.9 µM
[11]
  EC50: 10.2 µM
[12]
  EC50: 8.9 µM
[13]
  EC50: 8.2 µM
[14]
  EC50: 9.2 µM
[15]
  EC50: 9.4 µM
[16]
  EC50: 8.1 µM
[17]
  EC50: 8.9 µM
[18]
  EC50: 8.4 µM
[19]
  EC50: 9.5 µM
[20]
  EC50: 7.8 µM
[21]
  EC50: > 30 µM
  sensitivity of normal cells to the compounds: not sensitive

## CC(C)C1CCC2(C(=O)O)CCC3(C)C(CCC4C5(C)CCC(=O)C(C)(CO)C5CCC43C)C12 (stereo not drawn) [zhangnan-7]
[1]; 168 h, C8166, day 7, MTT
  IC50: 25 ± 5.2 µM
[2]
  therapeutic index TI: 9923
  EC50: 0.0026 ± 0.0005 µM
[3]
  EC50: 19.3 µM
[4]
  EC50: 18.5 µM
[5]
  EC50: 13.1 µM
[6]
  EC50: 17.4 µM
[7]
  EC50: 16.1 µM
[8]
  EC50: 16.2 µM
[9]
  EC50: 17.5 µM
[10]
  EC50: 16.9 µM
[11]
  EC50: 19.2 µM
[12]
  EC50: 13.9 µM
[13]
  EC50: 15.6 µM
[14]
  EC50: 20.1 µM
[15]
  EC50: 18.9 µM
[16]
  EC50: 16.8 µM
[17]
  EC50: 18.3 µM
[18]
  EC50: 14.8 µM
[19]
  EC50: 17.9 µM
[20]
  EC50: 15.1 µM
[21]
  EC50: > 30 µM
  sensitivity of normal cells to the compounds: not sensitive

## C=C(C)C1CCC2(C(=O)O)CCC3(C)C(CCC4C5(C)CCC(=O)C(C)(CO)C5CCC43C)C12 (stereo not drawn) [zhangnan-5]
[1]; C8166, 168 h
  IC50: 2.3 ± 0.47 µM
[2]
  therapeutic index TI: 3.4
  EC50: 0.7 ± 0.19 µM
[3]
  EC50: 0.087 µM
[4]
  EC50: 0.89 µM
[5]
  EC50: 0.54 µM
[6]
  EC50: 0.67 µM
[7]
  EC50: 0.23 µM
[8]
  EC50: 0.91 µM
[9]
  EC50: 1.3 µM
[10]
  EC50: 1.5 µM
[11]
  EC50: 1.3 µM
[12]
  EC50: 0.47 µM
[13]
  EC50: 0.52 µM
[14]
  EC50: 0.98 µM
[15]
  EC50: 0.93 µM
[16]
  EC50: 3.1 µM
[17]
  EC50: 1.2 µM
[18]
  EC50: 0.85 µM
[19]
  EC50: 0.78 µM
[20]
  EC50: 0.09 µM
[21]
  EC50: > 30 µM
  sensitivity of normal cells to the compounds: not sensitive
